Laboratory results from ChEMBL document CHEMBL5614401 (Eur J Med Chem, 2024).
Activity calls are given as the source filed them. No cut-off for these calls is given here.

Columns and labels:
[1] = biological target: T1, Solute carrier family 22 member 12 (Homo sapiens, UniProt Q96S37); assay: Inhibition of URAT1 (unknown origin)
T1 sequence (Q96S37 whole entry): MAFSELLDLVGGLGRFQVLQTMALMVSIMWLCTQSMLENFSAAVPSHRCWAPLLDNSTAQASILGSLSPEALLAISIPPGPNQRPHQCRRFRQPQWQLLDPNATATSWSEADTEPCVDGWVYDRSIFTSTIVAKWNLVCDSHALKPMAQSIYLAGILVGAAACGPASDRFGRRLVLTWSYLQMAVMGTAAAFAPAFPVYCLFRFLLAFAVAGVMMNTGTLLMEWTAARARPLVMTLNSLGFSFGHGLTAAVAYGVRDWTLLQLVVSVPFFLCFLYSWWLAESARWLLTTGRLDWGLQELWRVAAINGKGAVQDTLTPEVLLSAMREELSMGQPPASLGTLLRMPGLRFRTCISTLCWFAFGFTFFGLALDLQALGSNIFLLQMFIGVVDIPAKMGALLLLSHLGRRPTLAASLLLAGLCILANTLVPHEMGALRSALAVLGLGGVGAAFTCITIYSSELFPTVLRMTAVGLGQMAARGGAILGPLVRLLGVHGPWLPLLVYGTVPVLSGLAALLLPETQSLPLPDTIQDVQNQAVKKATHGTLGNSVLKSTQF

[2] = biological target: T1, Solute carrier family 22 member 12; assay: Inhibition of human URAT1 transfected in HEK293 cells by measuring 14C-uric acid uptake at 5 uM preincubated for 30 mins followed by 14--uric acid addition and measured after 15 mins by liquid scintillation counter analysis relative to control; type: cell-based; conditions: 0.25 h, time 45 min
[3] = biological target: T1, Solute carrier family 22 member 12; assay: Inhibition of human URAT1 transfected in HEK293 cells by measuring 14C-uric acid uptake preincubated for 30 mins followed by 14--uric acid addition and measured after 15 mins by liquid scintillation counter analysis; type: cell-based
Mus musculus [4] = assay: (§1) Anti-hyperuricemic activity against potassium oxonate-induced male Kunming mouse model assessed as alleviation of glomerular ischemia in kidney at 10 mg/kg, po via gavage administered 1 hr post-potassium oxonate challenge and measured after 7 days on day 7 potassium oxonate injected after 12 hrs fasting and measured followed by 1.5 hrs of compound administration by H and E staining based analysis; type: functional, organism-based; conditions: time 7.0 day
Mus musculus [5] = assay: as §1, with “casts formation” for “glomerular ischemia”; type: functional, organism-based; conditions: time 7.0 day
[6] = (§2) Renal toxicity in potassium oxonate-induced male Kunming mouse model assessed as effect on kidney damage at 10 mg/kg,po via gavage administered 1 hr post-potassium oxonate challenge and measured after 7 days on day 7 potassium oxonate injected after 12 hrs fasting and measured followed by 1.5 hrs of compound administration; type: organism-based; conditions: in vivo, 168 h, time 7 day
Mus musculus [7] = assay: as §1, with “shrinkage” for “glomerular ischemia”; type: functional, organism-based; conditions: time 7.0 day
Mus musculus [8] = assay: as §1, with “increase” for “alleviation of glomerular ischemia”, “urine uric acid level” for “kidney”, “(reference value: 481.6 microM)” for “by H and E staining based analysis”; type: functional; conditions: time 7 day
[9] = as §2, with “reduction in BUN level in serum” for “effect on kidney damage”, “administration by biochemical analyzer” for “administration”; type: organism-based; conditions: in vivo, 168 h, time 7 day
Mus musculus [10] = assay: as §1, with “reduction” for “alleviation of glomerular ischemia”, “serum uric acid level” for “kidney”, “administration” for “administration by H and E staining based analysis”; type: functional; conditions: time 7 day
[11] = as §2, with “reduction in CR level in serum” for “effect on kidney damage”, “administration by biochemical analyzer” for “administration”; type: organism-based; conditions: in vivo, 168 h, time 7 day
Mus musculus [12] = assay: as §1, with “renal tubule dilatation” for “glomerular ischemia in kidney”; type: functional, organism-based; conditions: time 7.0 day

SMILES: O=C(c1cc(Cl)c(O)c(Cl)c1)N1CS(=O)(=O)c2ccccc21 [DOTINURAD]
- IC50 [1]: 40 nM

SMILES: CC(C)=CCc1c(O)ccc2c1OC(c1cccc(F)c1)CC2=O (stereo unspecified)
- inhibition at 5 µM [2]: 22.7%

SMILES: C/C(=C\Cc1c(O)ccc2c1OC(c1ccc(O)cc1)CC2=O)C(=O)O (stereo unspecified)
- IC50 [3]: 2110 nM

SMILES: O=C(O)/C=C/Cc1cccc2c1OC(c1cc3ccccc3s1)CC2=O (stereo unspecified)
- IC50 [3]: 1890 nM

SMILES: C/C(=C\Cc1cccc2c1OC(c1csc3ccccc13)CC2=O)C(=O)O (stereo unspecified)
- IC50 [3]: 950 nM

SMILES: O=C(O)CCCc1c(O)ccc2c1OC(c1cccs1)CC2=O (stereo unspecified)
- IC50 [3]: 2410 nM

SMILES: C/C(=C\Cc1cccc2c1OC(c1ccsc1)CC2=O)C(=O)O (stereo unspecified)
- IC50 [3]: 2180 nM

SMILES: C/C(=C\Cc1c(O)ccc2c1OC(c1ccsc1)CC2=O)C(=O)O (stereo unspecified)
- IC50 [3]: 650 nM

SMILES: O=C(O)/C=C/Cc1c(O)ccc2c1OC(c1cccs1)CC2=O (stereo unspecified)
- IC50 [3]: 2180 nM

SMILES: CC(C)=CCc1c(O)ccc2c1OC(c1ccc(Br)cc1)CC2=O (stereo unspecified)
- inhibition at 5 µM [2]: 32.2%

SMILES: Cc1ccc2c(c1C/C=C/S(=O)(=O)c1ccccc1)OC(c1ccsc1)CC2=O (stereo unspecified)
- IC50 [3]: 4430 nM

SMILES: O=C(O)/C=C/Cc1cccc2c1OC(c1ccsc1)CC2=O (stereo unspecified)
- IC50 [3]: 3590 nM

SMILES: CC(C)=CCc1c(O)ccc2c1OC(c1csc3ccccc13)CC2=O (stereo unspecified)
- inhibition at 5 µM [2]: 32%

SMILES: CC(C)(Sc1ccncc1Cc1ccc(C#N)c2ccccc12)C(=O)O
- IC50 [1]: 2080 nM

SMILES: C/C(=C\Cc1cccc2c1OC(c1cc3ccccc3s1)CC2=O)C(=O)O (stereo unspecified)
- IC50 [3]: 1640 nM

SMILES: CC(C)=CCc1c(O)ccc2c1OC(c1cccs1)CC2=O (stereo unspecified)
- inhibition at 5 µM [2]: 19.8%

SMILES: C/C(=C\Cc1cccc2c1OC(c1ccc(O)cc1)CC2=O)C(=O)O (stereo unspecified)
- IC50 [3]: 2680 nM

SMILES: O=C(O)CSc1nnc(Br)n1-c1ccc(C2CC2)c2ccccc12
- Activity (Mus musculus [4]): inactive
- Activity (Mus musculus [5]): inactive
- Activity [6]: Non-Toxic
- Activity (Mus musculus [7]): inactive
- Activity (Mus musculus [8]): 696.8 µM
- Activity [9]: Non-Toxic
- Activity (Mus musculus [10]): 380.14 µM
- Activity [11]: Non-Toxic
- Activity (Mus musculus [12]): inactive
